The record followed here is patent publication US7820646B2, “Cyclized derivatives as Eg-5 inhibitors” (Novartis Vaccines and Diagnostics, Inc., priority 2007, dated 2010).

The structures appear in SMILES notation. Where only a bound is given, the exact number is not on record here.

The test system of assay [1] is parental cell line. The assay can be described thus: Inhibition of cellular proliferation in tumor cell lines (CellTiter Glo), KB3.1. In kind it is cell-based. The conditions noted are these: Homo sapiens, KB 3-1; KB3.1, 72 hours of continuous compound exposure; read-out: Cell Base Activity GI50 KB3.1. As to the method:
(§1) Cells are plated in 96-well plates at densities of about 500 cells per well of a 96-well plate and are allowed to grow for 24 hours. The cells are then treated with various concentrations of compounds for 72 hours. Then, 100 μl of CellTiter Glo is added. CellTiter Glo is a tetrazolium-based assay using the reagent 3-(4,5-dimethylthiazol-2-yl) 5-(3-carboxymethoxyphenyl)-2-(4-sulfophenyl)-2H-tetrazolium (MTS) (U.S. Pat. No. 5,185,450) (see Promega product catalog #G3580, CellTiter 96 Aqueous One Solution Cell Proliferation Assay). The cells are then incubated in the dark for 30 minutes. The amount of luminescence is determined for each well using a Walloc Trilux plate reader, which correlates with the number of cells per well. The number of viable cells in the wells that receive only DMSO (0.5%) serve as an indication of 0% inhibition, while wells without cells serve as 100% inhibition of cell growth. The compound concentration that results in a 50% growth inhibition (GI50) is determined graphically from sigmoidal dose-response curves of log-transformed dose values versus cell counts (percent of control) at 72 hours of continuous compound exposure.
(§2) The cell lines used are listed below.
(§3) The cell proliferation assay is performed as described above.
(In general: Cellular ATP, detected with luciferase, serves as a proxy for viable cell number.)

Assay [2] has as its system KB8.5 (KB85 - p-glycoprotein associated multi-drug resistant cell line). The assay can be described thus: Inhibition of cellular proliferation in tumor cell lines (CellTiter Glo), KB8.5. Particulars: KB8.5, 72 hours of continuous compound exposure; read-out: Cell Base Activity GI50 KB8.5. In kind it is cell-based. Here is the method:
as §1, §2, §3

Assay [3] concerns HCT-15 colon carcinoma. The assay can be described thus: Inhibition of cellular proliferation in tumor cell lines (CellTiter Glo), HCT-15. Type of assay: cell-based. Particulars: Homo sapiens; HCT-15, 72 hours of continuous compound exposure; read-out: Cell Base Activity GI50 HCT-15. Here is the method: as §1, §2, §3
In assay [4] the test system is HCT-116 colon carcinoma. The assay can be described thus: Inhibition of cellular proliferation in tumor cell lines (CellTiter Glo), HCT-116. Type of assay: cell-based. The conditions noted are these: Homo sapiens; HCT-116, 72 hours of continuous compound exposure; read-out: Cell Base Activity GI50 HCT-116. As to the method:
as §1, §2, §3

The target in assay [5] is T1, motor domain of human KSP (Eg 5, KNSL1) (Homo sapiens, UniProt P52732).
T1 construct: KSP motor protein (i.e., the KSP motor domain); made in house
T1 sequence (P52732 18-359 limits assumed): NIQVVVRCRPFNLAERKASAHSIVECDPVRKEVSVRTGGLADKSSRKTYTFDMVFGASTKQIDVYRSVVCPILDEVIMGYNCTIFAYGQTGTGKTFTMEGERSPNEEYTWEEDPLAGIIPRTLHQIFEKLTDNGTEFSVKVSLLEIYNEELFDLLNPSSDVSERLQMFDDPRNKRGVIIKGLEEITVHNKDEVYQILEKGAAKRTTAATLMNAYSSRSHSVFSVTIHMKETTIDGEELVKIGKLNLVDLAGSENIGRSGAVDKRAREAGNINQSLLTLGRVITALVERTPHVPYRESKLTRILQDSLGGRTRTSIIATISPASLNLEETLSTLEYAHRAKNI
The assay can be described thus: Assay for determining KSP activity (microtubule-stimulated ATPase, Biomol Green). The conditions noted are these: KSP motor domain 45 nM, microtubules 35 μg/mL, 1 hour at RT; read-out: Biochemical Activity IC50. An excerpt: This example provides a representative in vitro assay for determining KSP activity in vitro. Purified microtubules obtained from bovine brain were purchased from Cytoskeleton Inc. (Denver, Colo., USA). The motor domain of human KSP (Eg 5, KNSL1) was cloned, expressed, and purified to greater than 95% homogeneity. Biomol Green was purchased from Affinity Research Products Ltd. (Matford Court, Exeter, Devon, United Kingdom). Microtubules and KSP motor protein (i.e., the KSP motor domain) were diluted in assay buffer (20 mM Tris-HCl (pH 7.5), 1 mM MgCl2, 10 mM DTT and 0.25 mg/mL BSA) to a final concentration of 35 μg/mL microtubules and 45 nM KSP. The microtubule/KSP mixture was then pre-incubated at 37° C. for 10 min to promote the binding of KSP to microtubules.
To each well of the testing plate (384-well plate) containing 1.25 μL of inhibitor or test compound in DMSO (or DMSO only in the case of controls) were added 25 μL of ATP solution (ATP diluted to a concentration of 300 μM in assay buffer) and 25 μL of the above-described microtubule/KSP solution. The plates were incubated at RT for 1 hour. Following incubation, 65 μL of Biomol Green (a malachite green-based dye that detects the release of inorganic phosphate) was added to each well. The plates were incubated for an additional 5-10 minutes then the absorbance at 630 nm was determined using a Victor II plate reader. The amount of absorbance at 630 nm corresponded to the amount of KSP activity in the samples. The IC50 of each inhibitor or test compound was then determined based on the decrease in absorbance at 630 nm at each concentration, via nonlinear regression using either XLFit for Excel or Prism data analysis software by GraphPad Software Inc.

A word on the GI50: it is the concentration at which growth is held to half of that of the control. Usually IC50 stands for the concentration needed to halve the response being measured. For the compound `CC(C)(C)[C@H](c1nc(-c2ccccc2)cn1Cc1ccccc1)N1CC(CCN)OC1=O` (stereo in doubt) [Compound 1, (5R)-5-(2-aminoethyl)-3-[(1R)-1-(1-benzyl-4-phenyl-1H-imidazol-2-yl)-2,2-dimethylpropyl]-1,3-oxazolidin-2-one], the GI50 in assay [1] is 100 to 1000 nM; in assay [2], > 1000 nM; in assay [3], > 1000 nM; in assay [4], 100 to 1000 nM. In addition, in assay [5], the IC50 is 100 to 1000 nM.
For `CC(C)[C@H](c1nc(-c2cccc(Cl)c2)cn1Cc1ccccc1)N1CC(CN)OC1=O` (stereo partly drawn) [Compound 3, 5-(aminomethyl)-3-{(1R)-1-[1-benzyl-4-(3-chlorophenyl)-1H-imidazol-2-yl]-2-methylpropyl}-1,3-oxazolidin-2-one], the GI50 in assay [1], in assay [2], in assay [3] and in assay [4] was > 1000 nM in each case. In addition, in assay [5], the IC50 was 100 to 1000 nM.
`CC(C)(C)[C@H](c1nc(-c2ccccc2)cn1Cc1ccccc1)N1C[C@H](CN)COC1=O` [Compound 4, (5S)-5-(aminomethyl)-3-[(1R)-1-(1-benzyl-4-phenyl-1H-imidazol-2-yl)-2,2-dimethylpropyl]-1,3-oxazinan-2-one]: the concentration for 50% growth inhibition (GI50) in assay [1] and in assay [2] was > 1000 nM throughout. Also, the half-inhibitory concentration (IC50) in assay [5] is 100 to 1000 nM.
Regarding `CC(C)(C)[C@H](c1nc(-c2ccccc2)cn1Cc1ccccc1)N1C[C@@H](CN)COC1=O` [Compound 5, (5R)-5-(aminomethyl)-3-[(1R)-1-(1-benzyl-4-phenyl-1H-imidazol-2-yl)-2,2-dimethylpropyl]-1,3-oxazinan-2-one], the GI50 in assay [1] and in assay [2] was 100 to 1000 nM each time. Moreover, the IC50 in assay [5] was ≤ 100 nM.
Take `CC(C)(C)[C@H](c1nc(-c2ccccc2)cn1Cc1ccccc1)N1C[C@H](CN)OCC1=O` [Compound 6, (6S)-6-(aminomethyl)-4-[(1R)-1-(1-benzyl-4-phenyl-1H-imidazol-2-yl)-2,2-dimethylpropyl]morpholin-3-one]: the GI50 in assay [1] was 100 to 1000 nM; in assay [2], > 1000 nM; in assay [3], > 1000 nM; in assay [4] it was 100 to 1000 nM. In assay [5], the IC50 was 100 to 1000 nM.
As for `CC(C)(C)[C@H](c1nc(-c2ccccc2)cn1Cc1ccccc1)N1C[C@@H](CN)OCC1=O` [Compound 7, (6R)-6-(aminomethyl)-4-[(1R)-1-(1-benzyl-4-phenyl-1H-imidazol-2-yl)-2,2-dimethylpropyl]morpholin-3-one], the 50% growth inhibitory concentration (GI50) in assay [1], in assay [2], in assay [3] and in assay [4] was 100 to 1000 nM in each case. For the same compound, the IC50 in assay [5] is ≤ 100 nM.
Consider `CC(C)[C@H](c1nc(-c2cccc(Cl)c2)cn1Cc1ccccc1)N1C[C@@H](CN)OCC1=O` [Compound 8, (6R)-6-(aminomethyl)-4-{(1R)-1-[1-benzyl-4-(3-chlorophenyl)-1H-imidazol-2-yl]-2-methylpropyl}morpholin-3-one], for which the IC50 in assay [5] is > 1000 nM.
Consider `CC(C)(C)[C@H](c1nc(-c2ccccc2)cn1Cc1ccccc1)N1C[C@@H](CCN)OCC1=O` [Compound 10, (6R)-6-(2-aminoethyl)-4-[(1R)-1-(1-benzyl-4-phenyl-1H-imidazol-2-yl)-2,2-dimethylpropyl]morpholin-3-one], for which the concentration for half-maximal inhibition (IC50) in assay [5] is 100 to 1000 nM.
Consider `CC(C)(C)[C@H](c1nc(-c2ccccc2)cn1Cc1ccccc1)N1C[C@H](CCN)OCC1=O` [Compound 11, (6S)-6-(2-aminoethyl)-4-[(1R)-1-(1-benzyl-4-phenyl-1H-imidazol-2-yl)-2,2-dimethylpropyl]morpholin-3-one], for which, in assay [5], the IC50 was in the range of 100 to 1000 nM.
Consider `CC(C)[C@H](c1nc(-c2cccc(Cl)c2)cn1Cc1ccccc1)N1C[C@H](CCN)OCC1=O` [Compound 12, (6S)-6-(2-aminoethyl)-4-{(1R)-1-[1-benzyl-4-(3-chlorophenyl)-1H-imidazol-2-yl]-2-methylpropyl}morpholin-3-one], for which, in assay [5], the IC50 is > 1000 nM.
For the compound `CC(C)(C)[C@H](c1nc(-c2ccccc2)cn1Cc1ccccc1)N1C[C@@H](CO)NCCC1=O` [Compound 19, (2S)-4-[(1R)-1-(1-benzyl-4-phenyl-1H-imidazol-2-yl)-2,2-dimethylpropyl]-2-(hydroxymethyl)-1,4-diazepan-5-one], the GI50 in assay [1] and in assay [2] was > 1000 nM throughout. In addition, the IC50 in assay [5] is 100 to 1000 nM.
For `CC(C)(C)[C@H](c1nc(-c2ccccc2)cn1Cc1ccccc1)N1C[C@@H](CN)N(S(C)(=O)=O)CCC1=O` [Compound 21, (2R)-2-(aminomethyl)-4-[(1R)-1-(1-benzyl-4-phenyl-1H-imidazol-2-yl)-2,2-dimethylpropyl]-1-(methylsulfonyl)-1,4-diazepan-5-one], the GI50 in assay [1] is ≤ 100 nM; in assay [2], > 1000 nM. Also, in assay [5], the IC50 was ≤ 100 nM.
As to `CC(C)(C)[C@H](c1nc(-c2ccccc2)cn1Cc1ccccc1)N1C[C@H](CN)OCCC1=O` [Compound 22, (2S)-2-(aminomethyl)-4-[(1R)-1-(1-benzyl-4-phenyl-1H-imidazol-2-yl)-2,2-dimethylpropyl]-1,4-oxazepan-5-one], the GI50 in assay [1] and in assay [2] was > 1000 nM throughout. Besides, the IC50 in assay [5] fell in the range of 100 to 1000 nM.
Consider `CC(C)(C)[C@H](c1nc(-c2ccccc2)cn1Cc1ccccc1)N1C[C@H](CN)COCC1=O` [Compound 24, (6S)-6-(aminomethyl)-4-[(1R)-1-(1-benzyl-4-phenyl-1H-imidazol-2-yl)-2,2-dimethylpropyl]-1,4-oxazepan-3-one], for which the GI50 in assay [1] and in assay [2] was 100 to 1000 nM throughout. In assay [5], the IC50 was ≤ 100 nM.
Turning to `CC(C)(C)[C@H](c1nc(-c2cccc(F)c2)cn1Cc1cc(F)cc(F)c1)N1C[C@@H](CN)COCC1=O` [Compound 26, (6R)-6-(aminomethyl)-4-{(1R)-1-[1-(3,5-difluorobenzyl)-4-(3-fluorophenyl)-1H-imidazol-2-yl]-2,2-dimethylpropyl}-1,4-oxazepan-3-one], the GI50 in assay [1], in assay [2] and in assay [4] was 100 to 1000 nM throughout. In addition, the IC50 in assay [5] was ≤ 100 nM.
`CC(C)(C)[C@H](c1nc(-c2ccccc2)cn1Cc1ccccc1)N1C[C@@H](CN)CNC(=O)C1=O` [Compound 30, (6S)-6-(aminomethyl)-1-[(1R)-1-(1-benzyl-4-phenyl-1H-imidazol-2-yl)-2,2-dimethylpropyl]-1,4-diazepane-2,3-dione]: in assay [5], the IC50 was ≤ 100 nM.
In the case of `CC(C)(C)[C@H](c1nc(-c2ccccc2)cn1Cc1ccccc1)N1C[C@H](F)CNCC1=O` [Compound 31, (6R)-1-[(1R)-1-(1-benzyl-4-phenyl-1H-imidazol-2-yl)-2,2-dimethylpropyl]-6-fluoro-1,4-diazepan-2-one], in assay [5], the IC50 is 100 to 1000 nM.
Regarding `CC(C)(C)[C@H](c1nc(-c2ccccc2)cn1Cc1ccccc1)N1C[C@@H](F)CNCC1=O` [Compound 32, (6S)-1-[(1R)-1-(1-benzyl-4-phenyl-1H-imidazol-2-yl)-2,2-dimethylpropyl]-6-fluoro-1,4-diazepan-2-one], the GI50 in assay [1] and in assay [2] was > 1000 nM in each case. For the same compound, the IC50 in assay [5] lay within 100 to 1000 nM.
